Results as given in the supplement of paper PMC10949913.

How the values were obtained:
Conditions in all cases: 48 h
CU-ACC2 [1] = assay: area under concentration-response curve (viability) (AUC (a.u.)); higher = less active
Method in brief: (§1)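 AC50 and area under the curve values derive from fitted concentration-response curves, restricted to inhibitory or non-responding curve classes. The curves came from three adrenocortical carcinoma cell lines in 1,536-well plates, each receiving 23 nL of every library compound at 11 concentrations. Viability was read by CellTiter-Glo luminescence after 48 h, normalised per plate to vehicle and empty-well controls.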

CU-ACC1 [2] = assay: as above
Method in brief: as §1

NCI-H295R [3] = assay: as above
Method in brief: as §1

CU-ACC2 [4] = assay: AC50 viability; higher = less potent
Method in brief: as §1

CU-ACC1 [5] = assay: AC50 viability; higher = less potent
Method in brief: as §1

NCI-H295R [6] = assay: AC50 viability; higher = less potent
Method in brief: as §1

Compound | area under concentration-response curve (CU-ACC2 [1]) | area under concentration-response curve (CU-ACC1 [2]) | area under concentration-response curve (NCI-H295R [3]) | AC50 viability (CU-ACC2 [4]) | AC50 viability (CU-ACC1 [5]) | AC50 viability (NCI-H295R [6])
CN(c1ncccc1CNc1nc(Nc2ccc3c(c2)CC(=O)N3)ncc1C(F)(F)F)[S+](C)(=O)[O-] | 422 | 404 | 430 | 6.61 µM | 13.2 µM | 14.8 µM
CO[C@H]1/C=C\C=C(\C)C(=O)NC2=CC(=O)C(NCCN(C)C)=C(C[C@@H](C)C[C@H](OC)[C@H](O)[C@@H](C)/C=C(/C)[C@@H]1OC(N)=O)C2=O | 460 | 335 | 451 | 0.833 µM | 1.66 µM | 3.72 µM
CCn1nnc2c(N3CCOCC3)nc(-c3ccc(NC(=O)Nc4ccc(C(=O)N5CCN(C)CC5)cc4)cc3)nc21 | 434 | 357 | 453 | 0.468 µM | 1.18 µM | 5.9 µM
CCC1=C2C=C(OC(=O)N3CCC(CC3)N4CCCCC4)C=CC2=NC\5=C1CN6C(=O)\C7=C(/C=C56)[C@@](O)(CC)C(=O)OC7 | 426 | 382 | 443 | 2.95 µM | 13.2 µM | 13.2 µM
CN[S+](=O)([O-])c1ccc2c(c1)/C(=C/c1[nH]c3c(c1CCCN1CCN(C)CC1)CCCC3)C(=O)N2 | 504 | 440 | 458 | 16.6 µM | 23.5 µM | 16.6 µM
COc1cc2c(NC3CCN(C(C)C)CC3)nc(C3CCCCC3)nc2cc1OCCCN1CCCC1 | 350 | 369 | 404 | 14.8 µM | 11.8 µM | 9.34 µM
Cc1cc(OCCCc2c3n(c4c(-c5c(C)nn(C)c5C)c(Cl)ccc24)[C@H](C)CN(c2cn(C)c4ccc(C(=O)O)cc24)C3=O)cc(C)c1Cl | 570 | 367 | 445 | 16.6 µM | 16.6 µM | 2.95 µM
C[C@@H]1CC[C@@]2(OC1)O[C@H]3C[C@H]4[C@@H]5C/C=C6/C[C@H](CC[C@]6(C)[C@H]5CC[C@]4(C)[C@H]3[C@@H]2C)O[C@@H]7O[C@H](CO)[C@@H](O[C@@H]8O[C@@H](C)[C@H](O)[C@@H](O)[C@H]8O)[C@H](O)[C@H]7O[C@@H]9O[C@@H](C)[C@H](O)[C@@H](O)[C@H]9O | 524 | 446 | 386 | 7.42 µM | 4.68 µM | 1.18 µM
COc1cc2c(cc1O)CCN[C@]21CS[C@@H]2c3c(OC(C)=O)c(C)c4c(c3[C@H](COC1=O)N1[C@@H]2[C@H]2c3c(cc(C)c(OC)c3O)C[C@@H]([C@@H]1O)N2C)OCO4 | 344 | 285 | 315 | 0.0152 µM | 0.00855 µM | 0.0152 µM
CCCc1cc(C(=O)N[C@H](Cc2ccc(-c3cccc(OC(F)(F)F)c3)nc2)C(=O)N[C@@H]2CCNC2)sc1C | 447 | 452 | 469 | 18.6 µM | 13.2 µM | 18.6 µM
C[C@@]12OC(=O)[C@@]1(NC(=O)[C@@H]2CCCl)[C@@H](O)[C@H]\3CCC\C=C3 | 437 | 305 | 435 | 1.05 µM | 0.833 µM | 0.833 µM
C[C@@H]1CN(CC(=O)N2CC(C)(C)c3ncc(Cc4ccc(F)cc4)cc32)[C@@H](CN2CCOC[C@H]2C)CN1 | 451 | 449 | 462 | 1.32 µM | 18.6 µM | 20.9 µM
OCCCNc1cc(-c2ccnc(Nc3cccc(Cl)c3)n2)ccn1 | 307 | 275 | 339 | 0.0934 µM | 0.148 µM | 0.263 µM
Clc1ccc(C2(c3ccc(-c4cn[nH]c4)cc3)CCNCC2)cc1 | 423 | 419 | 399 | 23.5 µM | 18.6 µM | 18.6 µM
N#Cc1c(C2CCNCC2)cc(-c2c(O)cccc2OCC2CC2)nc1N | 269 | 291 | 275 | 0.934 µM | 10.5 µM | 1.05 µM
COc1cccc2cc(-c3nc([C@H]4CC[C@H](C(=O)O)CC4)n4ncnc(N)c34)[nH]c12 | 466 | 454 | 492 | 10.5 µM | 4.17 µM | 5.9 µM
COc1cc(C)c(Sc2cnc(NC(=O)c3ccc(CNC(C)C(C)C)cc3)s2)cc1C(=O)N1CCN(C(C)=O)CC1 (stereo not given) | 527 | 466 | 478 | 16.6 µM | 37.2 µM | 14.8 µM
O=C(/C=C/c1ccc(CN(CCO)CCc2c[nH]c3ccccc23)cc1)NO | 345 | 293 | 380 | 0.59 µM | 0.332 µM | 1.66 µM
Cn1cc(CNCC2CCN(c3ncc(C(=O)NO)cn3)CC2)c2ccccc21 | 347 | 325 | 443 | 0.417 µM | 0.661 µM | 0.661 µM
CCCCNc1ncc2c(-c3ccc(F)cc3)nn(C[C@H]3CC[C@H](N)CC3)c2n1 | 611 | 523 | 550 | 14.4 µM | 14.4 µM | 14.4 µM
CN1CCN(Cc2ccc(NC(=O)Nc3ccc(Oc4cc(NC(=O)C5CC5)ncn4)cc3)cc2C(F)(F)F)CC1 | 337 | 426 | 428 | 0.468 µM | 1.66 µM | 2.63 µM
Cc1cc(C[S+](=O)([O-])c2ccccc2)cc(OCc2ccc(CN3CCC[C@@H]3CO)cc2)c1 | 463 | 428 | 425 | 20.9 µM | 14.8 µM | 26.3 µM
Cc1cnc(Nc2ccc(CN3CCOCC3)cc2)nc1Nc1cccc([S+](=O)([O-])NC(C)(C)C)c1 | 509 | 445 | 492 | 11.8 µM | 20.9 µM | 9.34 µM
C=CC(=O)Nc1cc(Nc2nccc(-c3cn(C)c4ccccc34)n2)c(OC)cc1N(C)CCN(C)C | 432 | 393 | 408 | 10.5 µM | 9.34 µM | 9.34 µM
COCCOc1ccc2c(c1)ncn2-c1ccc2cccc(N3CCC(N)CC3)c2n1 | 370 | 409 | 420 | 10.5 µM | 16.6 µM | 6.61 µM

Compound | area under concentration-response curve (CU-ACC2 [1]) | area under concentration-response curve (CU-ACC1 [2]) | area under concentration-response curve (NCI-H295R [3]) | AC50 viability (CU-ACC2 [4]) | AC50 viability (CU-ACC1 [5]) | AC50 viability (NCI-H295R [6])
C=CC(=O)Nc1cccc(Sc2nc(Nc3ccc(N4CCN(C)CC4)cc3)ncc2Cl)c1 | 388 | 342 | 375 | 4.17 µM | 4.68 µM | 4.68 µM
COc1cc2nc(N3CCCN(C)CC3)nc(NC3CCN(Cc4ccccc4)CC3)c2cc1OC | 535 | 362 | 494 | 8.33 µM | 13.2 µM | 9.34 µM
CC(C)C[C@H](NC(=O)CNC(=O)c1cc(Cl)ccc1Cl)B(O)O | 373 | 329 | 408 | 0.209 µM | 0.166 µM | 0.105 µM
C#Cc1cccc(Nc2ncnc3cc(OC)c(OCCCCCCC(=O)NO)cc23)c1 | 450 | 407 | 448 | 2.95 µM | 4.68 µM | 4.68 µM
Cc1cc(I)ccc1Nc1c(C(=O)NOCC2CC2)cc(F)c(F)c1F | 554 | 445 | 490 | 18.6 µM | 16.6 µM | 8.33 µM
Cc1n[nH]c2ccc(-c3cncc(OC[C@@H](N)Cc4ccccc4)c3)cc12 | 342 | 305 | 294 | 1.18 µM | 1.48 µM | 2.35 µM
CC(C)[C@H](C(=O)Nc1ccc(C(=O)NO)cc1)c1ccccc1 | 360 | 308 | 414 | 5.25 µM | 4.17 µM | 2.35 µM
CNC(=O)CCc1cc(-c2ccc(-c3ccc(C(F)(F)F)cc3)cc2)n(-c2ccc(N3CCNCC3)cc2)n1 | 476 | 432 | 487 | 7.42 µM | 4.68 µM | 8.33 µM
COc1cccc2c(NCc3ccccc3)nc(-n3c(N)nc4ccccc43)nc12 | 450 | 373 | 402 | 3.72 µM | 3.32 µM | 3.32 µM
Cc1cccc(Nc2nc(-c3ccncc3)cs2)c1 | 549 | 497 | 531 | 16.6 µM | 20.9 µM | 14.8 µM
Cc1cc(O)c(-c2ccc([C@@H](C)CN(C)C)cc2)c2c1[nH]c(=O)c1sccc12 | 346 | 311 | 305 | 0.166 µM | 0.235 µM | 0.295 µM
COc1cc2c(Oc3ccc4[nH]c(C)cc4c3F)ncnc2cc1OCCCN1CCCC1 | 566 | 491 | 461 | 20.9 µM | 20.9 µM | 20.9 µM
CC(C)CNc1ccnc(NCc2csc(-c3ccccc3)n2)n1 | 591 | 445 | 531 | 23.5 µM | 3.72 µM | 16.6 µM
Cc1ccc(C(N)=O)cc1Nc1nccc(-c2cn(C(C)C)c3cnccc23)n1 | 530 | 446 | 522 | 8.33 µM | 20.9 µM | 16.6 µM
C[C@@H]1O[C@@H](O[C@H]2C[C@@H](O)[C@]3(CO)[C@H]4[C@H](O)C[C@]5(C)[C@H](CC[C@]5(O)[C@@H]4CC[C@]3(O)C2)C/6=C/C(=O)OC6)[C@H](O)[C@H](O)[C@H]1O | 335 | 215 | 264 | 0.0468 µM | 0.0263 µM | 0.0934 µM
CN(Cc1ccc(/C=C/C(=O)NO)cc1)CC12CC3CC(CC(C3)C1)C2 | 408 | 303 | 365 | 1.05 µM | 1.05 µM | 1.66 µM
COc1cccc2c1C(=O)c1c(O)c3c(c(O)c1C2=O)C[C@@](O)(/C(CO)=N/NC(=O)CCCCCN1C(=O)C=CC1=O)C[C@@H]3O[C@H]1C[C@H](N)[C@H](O)[C@H](C)O1 | 539 | 356 | 492 | 18.6 µM | 20.9 µM | 18.6 µM
O=C(Nc1ccccc1-c1cn2c(CN3CCNCC3)csc2n1)c1cnc2ccccc2n1 | 366 | 367 | 358 | 7.42 µM | 6.61 µM | 2.95 µM
COC(=O)c1ccc2c(c1)NC(=O)/C2=C(\Nc1ccc(N(C)C(=O)CN2CCN(C)CC2)cc1)c1ccccc1 | 528 | 504 | 483 | 7.42 µM | 20.9 µM | 8.33 µM
CO[C@H]1CCC(O[C@H]2C[C@H]([C@]3(C)CC[C@]4(C[C@H](O)[C@@H](C)[C@@H]([C@@H](C)/C=C(\C)C(=O)[C@H](C)C[C@H](C)C(=O)[O-])O4)O3)O[C@]3(O[C@@H]([C@H]4O[C@@](O)(CO)[C@H](C)C[C@@H]4C)C[C@@H]3C)[C@@H]2C)O[C@@H]1C (stereo not given in full) | 392 | 400 | 440 | 2.35 µM | 1.48 µM | 2.63 µM
N[S+]([O-])(=O)C1=CC=C(NC/2=C/C(=O)C3=CC=CC=C3C2=O)C=C1 | 463 | 290 | 403 | 13.2 µM | 0.59 µM | 2.35 µM
O=C(Nc1ncc(SCCN2CCCC2)s1)[C@]1(c2ccc([S+](=O)([O-])C3CC3)cc2)C[C@H]1C1CCCCC1 | 507 | 442 | 437 | 26.3 µM | 13.2 µM | 10.5 µM
C[C@@H](NCc1cc2ccccc2[nH]1)c1cccc2ccccc12 | 479 | 428 | 428 | 20.9 µM | 20.9 µM | 23.5 µM
CCN(CC)CCNC(=O)c1c(C)[nH]c(/C=C2/C(=O)Nc3ccc(-c4csc(-c5ccccc5)n4)cc32)c1C | 521 | 369 | 453 | 9.34 µM | 13.2 µM | 7.42 µM
COCCOc1nc(-c2ccc(Cl)c(Cl)c2)n(-c2ccc(NC(=O)CCl)cc2)n1 | 415 | 383 | 391 | 3.72 µM | 5.25 µM | 3.72 µM
